Consider 2 compounds from patent US4419351A, “Platinum-dioxopyrimidine complexes” (priority 1978, dated 1983).

For data set [1], the system named is Mice Kidneys (proximal convoluted tubules). Set-up: species or system female Swiss White mice. The note with it: mouse, in vivo. The source says: The protocols for these tests were as follows: Each group contained six female Swiss White mice; the tumored animals were given a transplant of a solid Sarcoma-180 tumor on day 0 and treatment was initiated on day 1; the animals were sacrificed on day 10 and the kidneys removed and prepared for histological evaluation; control groups were non-tumored, non-treated animals, and tumored, non-treated animals. Multiple sections of each kidney were examined. […] The saturation concentration cannot be specified other than an estimate of less than 1 mg/100 ml. A very brief summary of the results are compiled in Table 8. The histopathologic degenerative changes are dose dependent in all cases.

Data set [2] has as its system ascites Sarcoma-180 tumor. The experiment in a line: chemotherapeutic activity vs ascites Sarcoma-180 tumor, single i.p. injection on day 1 (Table 2 survey). To be noted: carrier saline. It counts as in vivo, Swiss White mice. As to the method: The chemotherapeutic activities of the "Platinum Blue" complexes were determined using the ascites Sarcoma-180 tumor in Swiss White mice. The protocols for these tests were as follows: Random bred female Swiss White mice (Spartan Laboratory, Williamston, Mich.) of 18-20 grams weight were randomized in groups of six. The ascites cells were removed from the peritoneal cavities of animals with approximately 10 day old ascites tumors. The cells were washed several times with 0.85% saline and spun down each time in a refrigerated centrifuge for 3-5 minutes at 750 r.p.m. After the blood was removed from the cells, they were diluted with 0.85% saline solution and counted in a hemocytometer. A final dilution of 2×10^7 cells/ml. in saline was made. Each animal received 0.2 ml. of this suspension (4×10^6 cells/animals). This was injected intraperitoneally on day 0 of each test. Two groups (12 animals) were kept as negative controls, and the test was terminated at twice the mean day of death of the negative controls. […] All test compounds were injected i.p. on day one as a 0.5 ml. volume of the compound in a carrier of water, physiologic saline or arachis oil (peanut oil). Soluble compounds were always tested in appropriate solutions, the insoluble ones as a slurry. The slurry was sonicated for periods of up to 10 minutes to insure uniformity of dispersion just prior to injections. […] Retests were performed if a sufficient level of drug toxicity at the highest dose was not reached. Animals still alive at the completion of the tests were considered to have died on the day of evaluation. Animals showing no abdominal distention (by palpation, or visibly) on this day were considered cured.
The compounds tested were usually freshly prepared and purified. The compounds kept for further testing were stored in a vacuum dessicator in a dark refrigerator to prevent deterioration. […] Toxic levels are considered to be that concentration where 2 or more of the 6 animals at the dose died within 8 days of injection.
The letter A indicates the "blue" or first isolated precipitate, the letter B, the "green" or second precipitate.

Data set [3] relates to ascites Sarcoma-180 tumor. The experiment in a line: schedule dependency tests of antitumor activity (Table 3). The note with it: for # of cures / Best % ILS / Dose of Best % ILS: saline. Format: in vivo, Swiss White mice. How it is done:
The chemotherapeutic activities of the "Platinum Blue" complexes were determined using the ascites Sarcoma-180 tumor in Swiss White mice. The protocols for these tests were as follows: Random bred female Swiss White mice (Spartan Laboratory, Williamston, Mich.) of 18-20 grams weight were randomized in groups of six. The ascites cells were removed from the peritoneal cavities of animals with approximately 10 day old ascites tumors. The cells were washed several times with 0.85% saline and spun down each time in a refrigerated centrifuge for 3-5 minutes at 750 r.p.m. After the blood was removed from the cells, they were diluted with 0.85% saline solution and counted in a hemocytometer. A final dilution of 2×10^7 cells/ml. in saline was made. Each animal received 0.2 ml. of this suspension (4×10^6 cells/animals). This was injected intraperitoneally on day 0 of each test. Two groups (12 animals) were kept as negative controls, and the test was terminated at twice the mean day of death of the negative controls. […] Soluble compounds were always tested in appropriate solutions, the insoluble ones as a slurry. The slurry was sonicated for periods of up to 10 minutes to insure uniformity of dispersion just prior to injections. […] Retests were performed if a sufficient level of drug toxicity at the highest dose was not reached. Animals still alive at the completion of the tests were considered to have died on the day of evaluation. Animals showing no abdominal distention (by palpation, or visibly) on this day were considered cured.

For data set [4], the system named is MCDV 12 (Rauscher Leukemia, Virus Induced). The experiment in a line: effects on MCDV 12 (Rauscher Leukemia, virus induced) (Table 5). It counts as in vivo, BALB/C Mice. To be noted: for Survivors: at 200% ILS. The source says:
(§1) Tables 4-7, respectively, tabulate the results achieved when employing the complexes of the invention against the L1210, MCDV 12, (Rauscher Leukemia, virus-induced), Ehrlich Ascites and the ADJ PC6A (myeloma) tumors.
^a All experiments were terminated arbitrarily at 200% ILS and
survivors tabulated at that time. All therapy was started on third day
after tumor transplant. Untreated tumor controls died 10-11 days after
transplant. In some instances, efforts to reproduce above results have
shown considerable variability.

In a further data set the test system is Ehrlich Ascites Tumor. The experiment in a line: survival times of mice bearing the Ehrlich ascites tumor (Table 6). Format: in vivo. To be noted: 7 mg/kg; for Mean Survival Time (+ S.D.): single i.p. day 3.
Excerpt: as §1
^a 6 mice/group; each mouse received 10^7 ascites tumor cells on
day 0; treatment was as a single i. p. injection on day 3.

The test system of another data set is ADJ/PC6A Tumor. The experiment in a line: effects on ADJ/PC6A tumor (Table 7). To be noted: i.p., single dose, 24 days after tumor implant. It counts as in vivo, Female, C^- Mice.
Data set [5] concerns Escherichia coli-wild type. Briefly: anti-microbial activity, growth in test tube cultures (Table 9). It counts as cell-based. How it is done:
The following procedure was utilized to test the anti-microbal activity of the platinum complexes. The tests were performed with Escherichia coli-wild type, growing in test tube cultures. Using standardized techniques, growth in the medium was examined after the incorporation of the various test chemicals, using the increase in the optical density of the medium as against time. The bacteria were also periodically examined under a phase contrast microscope for evidence of elongation (filmentation).

Like-named read-outs stand apart in the source and are kept apart here.

In the case of `[Cl][Pt+2][Cl].[NH-]C1CCCC1.[NH-]C1CCCC1` [cis-dichloro(bis)cyclopentylamineplatinum(II)], the “saturation concentration in saline” value is “less than 1 mg/100 ml”. Besides, the “histopathologic degenerative changes at higher dose levels” value in data set [1] was “generalized vacuolar (hydropic) degeneration of the proximal convoluted tubules”.
For `N.N.[Cl][Pt][Cl]` [cis-dichlorodiammineplatinum(II)], the “Dose of Best % ILS” value in data set [2] (single i.p. day 1) is on record as 7 mg/kg; in data set [3] (day 1, 1 injection), 7 mg/kg; in data set [3] (every 5th day, 5 injections), 5 mg/kg; in data set [3] (every 3 hrs., 8 injections) it was 1 mg/kg; in data set [3] (every day, 5 injections), 3 mg/kg. For the same compound, in data set [2] (single i.p. day 1, max 100%), the “Best % ILS (increase in lifespan)” value is recorded as 49 (S.D ± 2.82) %. Moreover, the “# of cures” value in data set [2] (positive control, of 12 animals) was found to be 1; in data set [3] (day 1, 1 injection), 1; in data set [3] (every 5th day, 5 injections, 6 animals per test), 3; in data set [3] (every 3 hrs., 8 injections, 6 animals per test), 5; in data set [3] (every day, 5 injections, 6 animals per test) it was 3. Also, the “Best % ILS” value in data set [3] (day 1, 1 injection) is on record as 42 (S.D. ± 3.1) %; in data set [3] (every 5th day, 5 injections) it was 83%; in data set [3] (every 3 hrs., 8 injections), 86%; in data set [3] (every day, 5 injections), 19%. Besides, in data set [3] (every day, 5 injections, 3 mg/kg), the “animals died within 9 days of start (remainder cured)” value is “Three”. Moreover, the figures for the “% ILS” value in data set [4] (5 mg/kg × 1), in data set [4] (8 mg/kg × 1) and in data set [4] (16 mg/kg × 1) were 146%, 62% and -15%, respectively. Besides, the Survivors in data set [4] (5 mg/kg × 1) is 2/3; in data set [4] (8 mg/kg × 1), 0/2; in data set [4] (16 mg/kg × 1) it was 0/3. Also, the “% Increase in Mean Survival Time” value stood at 307% with Ehrlich Ascites Tumor (first experiment) and 194% with Ehrlich Ascites Tumor (second experiment). The results for the “Mean Survival Time (+ S.D.)” value in the data set on Ehrlich Ascites Tumor (first experiment (control 8.3 days)) and in the data set on Ehrlich Ascites Tumor (second experiment (control 10.1 days)) were 33.8 ± 16.9 days and 29.7 ± 4.2 days, respectively. In addition, in the data set on Ehrlich Ascites Tumor (first experiment, 6 mice/group), the “animals that survived > 60 days” value worked out at 2 animals. Also, the “ID 90 (90% Inhibition)” value in the data set with ADJ/PC6A Tumor is given as 1.6 mg/kg. In data set [1], the “histopathologic degenerative changes at higher dose levels” value is on record as “generalized vacuolar (hydropic) degeneration of the proximal convoluted tubules”. Moreover, the “Observed Renal Histopathological Changes” value in data set [1] (0.5 mg/kg) is given as “normal”; in data set [1] (1 mg/kg), “normal”; in data set [1] (2 mg/kg), “mild degenerative changes (cloudy swelling)”; in data set [1] (3 mg/kg), “mild degenerative changes (cloudy swelling)”; in data set [1] (7 mg/kg), “extensive degenerative changes (hydropic degeneration)”. The “Optical Density of Bacterial Cultures” value in data set [5] (7 ppm, 1:45 p.m., first run) is “.74”; in data set [5] (7 ppm, 2:45 p.m., first run), “.78”; in data set [5] (7 ppm, 9:30 a.m., first run), “.19”; in data set [5] (7 ppm, 10:45 a.m., first run), “.31”; in data set [5] (7 ppm, 11:45 a.m., first run) it was “.44”; in data set [5] (7 ppm, 12:45 p.m., first run), “.62”. The “Optical Density of Bacterial Cultures” value in data set [5] (10 ppm, 1:00 p.m., second run) was “.49”; in data set [5] (10 ppm, 2:00 p.m., second run), “.55”; in data set [5] (10 ppm, 3:20 p.m., second run) it was “.60”; in data set [5] (10 ppm, 9:30 a.m., second run), “.12”; in data set [5] (10 ppm, 11:00 a.m., second run), “.26”; in data set [5] (10 ppm, 12:00 p.m., second run) it was “.37”.
